According to ChEMBL document CHEMBL6177963, “Development of acylhydrazone linked thiazoles as non-covalent dual inhibitors of SARS-CoV-2 proteases” (Eur J Med Chem, 2025):
The source made the active and inactive calls. The calls are words filed in the database; no cut-off is given here.

What was measured:
SARS-CoV-2 [1] = assay: Antiviral activity against SARS-CoV-2 infected in African green monkey Vero E6 cells assessed as viral reduction by measuring viral RNA measured up to 72 hrs by RT-PCR analysis; format: functional, organism-based; conditions: Severe acute respiratory syndrome coronavirus 2, SARS-CoV-2, Vero C1008, 72 h
[2] = biological target: Replicase polyprotein 1ab (Severe acute respiratory syndrome coronavirus 2, UniProt P0DTD1); assay: Inhibition of recombinant SARS-CoV-2 PLpro using TLKGGI-AMC as substrate assessed as assessed as inhibition constant ny measuring fluorescence signal measured after 15 mins
[3] = biological target: Replicase polyprotein 1ab (Severe acute respiratory syndrome coronavirus 2) (UniProt P0DTD1); assay: Covalent binding affinity to SARS-CoV-2 PLpro assessed as change in molecular weight by Mass spectrometry
[4] = biological target: Replicase polyprotein 1ab (Severe acute respiratory syndrome coronavirus 2) (UniProt P0DTD1); assay: Non-covalent binding affinity to SARS-CoV-2 PLpro assessed change in molecular weight by Mass spectrometry
[5] = system: Severe acute respiratory syndrome coronavirus 2; assay: Reversible inhibition of SARS-CoV-2 MPro assessed as enzyme activity by dialysis; parameters: scale not given: the % may be the effect or the level left
[6] = biological target: Replicase polyprotein 1ab (Severe acute respiratory syndrome coronavirus 2) (UniProt P0DTD1); assay: Reversible inhibition of SARS-CoV-2 PLpro assessed as enzyme activity by dialysis; parameters: scale not given: the % may be the effect or the level left
[7] = system: Severe acute respiratory syndrome coronavirus 2; assay: Non-covalent inhibition of SARS-CoV-2 MPro by Lineweaver-Burk Plot analysis
[8] = biological target: Replicase polyprotein 1ab (Severe acute respiratory syndrome coronavirus 2) (UniProt P0DTD1); assay: Non-covalent inhibition of SARS-CoV-2 PLpro by Lineweaver-Burk Plot analysis
[9] = system: Severe acute respiratory syndrome coronavirus 2; assay: Binding affinity to SARS-CoV-2 MPro assessed as thermal stability by measuring melting temperature of half of the proteins unfolded by differential scanning fluorimetry (DSF) (reference value: 52.46 degC)
[10] = biological target: Replicase polyprotein 1ab (Severe acute respiratory syndrome coronavirus 2) (UniProt P0DTD1); assay: Binding affinity to SARS-CoV-2 PLpro assessed as thermal stability by measuring melting temperature of half of the proteins unfolded by differential scanning fluorimetry (DSF) (reference value: 45.79 degC)
[11] = biological target: Chymotrypsin (Homo sapiens) (UniProt Q99895+P17538+P40313+Q6GPI1); assay: Inhibition of Chymotrypsin (unknown origin) assessed as BSA digestion; format: protein assay
[12] = Cytotoxicity against human HEK293 cells assessed as cell viability measured after 48 hrs by MTT assay; format: toxicity, cell-based
[13] = Cytotoxicity against African green monkey Vero E6 cells assessed as cell viability at 100 uM measured after 48 hrs by MTT assay relative to control; format: toxicity, cell-based, Vero C1008; conditions: chlorocebus sabaeus, read-out: Activity
SARS-CoV-2 [14] = assay: Antiviral activity against SARS-CoV-2 infected in African green monkey Vero E6 cells assessed as viral load reduction at 4 uM by measuring viral RNA measured up to 72 hrs by RT-PCR analysis relative to control; format: functional, Severe acute respiratory syndrome coronavirus 2, Vero C1008; parameters: scale not given: the % may be the effect or the level left
[15] = Acute toxicity in rat assessed as change in body weight at 175 to 2000 mg/kg, po measured for 14 days; format: organism-based; conditions: in vivo, 336 h, dose 175-2000 mg/kg, time 14 day
[16] = Acute toxicity in rat assessed as morphological changes in liver in portal, periportal, and centrilobular regions at 175 to 2000 mg/kg, po measured for 14 days by Hand E staining based analysis; format: organism-based; conditions: in vivo, 336 h, dose 175-2000 mg/kg, time 14 day
[17] = Acute toxicity in rat assessed as toxicity at 175 to 2000 mg/kg, po measured for 14 days; format: organism-based; conditions: in vivo, dose 175-2000 mg/kg, time 14 day
[18] = biological target: Replicase polyprotein 1ab (Severe acute respiratory syndrome coronavirus 2) (UniProt P0DTD1); assay: Inhibition of recombinant SARS-CoV-2 PLpro using TLKGGI-AMC as substrate assessed as assessed as inhibition constant ny measuring fluorescence signal at 10 uM measured after 15 mins relative to control
SARS-CoV-2 [19] = assay: Anti-viral activity against SARS-CoV-2 Calu-3 by direct yield reduction assay (DYRA); format: functional, organism-based; conditions: Severe acute respiratory syndrome coronavirus 2, Calu-3, Calu-3
[20] = system: Severe acute respiratory syndrome coronavirus 2; assay: Covalent binding affinity to SARS-CoV-2 MPro assessed as change in molecular weight by Mass spectrometry
[21] = system: Severe acute respiratory syndrome coronavirus 2; assay: Non-covalent binding affinity to SARS-CoV-2 MPro assessed change in molecular weight by Mass spectrometry
SARS-CoV-2 [22] = assay: Antiviral activity against SARS-CoV-2 infected in African green monkey Vero E6 cells assessed as viral load reduction at 0.125 uM by measuring viral RNA measured up to 72 hrs by RT-PCR analysis relative to control; format: functional, Severe acute respiratory syndrome coronavirus 2, Vero C1008; parameters: scale not given: the % may be the effect or the level left

In the case of `CCOC(=O)c1sc(NNC(=O)c2ccc([N+](=O)[O-])cc2)nc1C`, the EC50 (SARS-CoV-2 [1]) is reported as 0.097 µM, the Ki ([2]; read-out: Ki) is reported as 0.45 µM and the Activity [3] is reported as “inactive”. For the same compound, the Activity [4] was “Active”, the Activity [5] was greater than 90% and the Activity [6] was greater than 90%. For the same compound, the Activity [7] was “Active”, the Activity [8] was “Active” and the Tm [9] was 51 °C. For the same compound, the Tm [10] was 41.5 °C, the inhibition [11] was “inactive” and the IC50 at 48 h [12] was 25.9 µM. For the same compound, the viability at 48 h, 100 µM [13] was 89.2%, the Activity (SARS-CoV-2 [14]) was greater than 80% and the Activity [15] was “Non-toxic”. The Activity [16] was “Non-toxic” and the LD50 at 336 h [17] was greater than 2000 mg/kg.
With `Cc1ccc(C(=O)NNc2nc(-c3ccc(Cl)cc3)cs2)cc1` the EC50 (SARS-CoV-2 [1]) was 0.068 µM, the Ki ([2]; read-out: Ki) was 0.24 µM and the Activity [8] was “Active”. For the same compound, the Tm [9] was 51.8 °C, the Tm [10] was 45.8 °C and the inhibition [11] was “inactive”. It also gave an IC50 at 48 h [12] of 41.1 µM, a viability at 48 h, 100 µM [13] of 91.5% and an Activity (SARS-CoV-2 [14]) greater than 70%.
With `O=C(NNc1nc(-c2ccc(Br)cc2)cs1)c1ccc(Br)cc1` the Ki [2] was “Not_active” and the inhibition [18] was less than 50%.
Work on `CCOC(=O)c1sc(NNC(=O)c2ccc3ccccc3c2)nc1C` yielded a Ki ([2]; read-out: Ki) of 0.66 µM.
With `COC(=O)c1sc(NNC(=O)c2ccc([N+](=O)[O-])cc2)nc1C` the Ki [2] was “Not_active” and the inhibition [18] was less than 50%.
In the case of `CCOC(=O)c1sc(NNC(=O)c2ccccc2)nc1C`, the Ki [2] is reported as “Not_active” and the inhibition [18] is reported as less than 50%.
Compound `O=C(NNc1nc(-c2ccc(Cl)cc2)cs1)c1ccc(Cl)cc1` has an EC50 (SARS-CoV-2 [1]) of 0.064 µM, a Ki ([2]; read-out: Ki) of 0.5 µM and a Tm [10] of 47.5 °C. The IC50 at 48 h [12] was 14 µM, the viability at 48 h, 100 µM [13] was 87% and the Activity (SARS-CoV-2 [14]) was greater than 80%.
With `Cc1ccc(C(=O)NNc2nc(-c3ccc(Br)cc3)cs2)cc1` the Ki [2] was “Not_active” and the inhibition [18] was less than 50%.
Compound `CCOC(=O)c1sc(NNC(=O)c2ccc(C)cc2)nc1C` has a Ki ([2]; read-out: Ki) of 0.23 µM and an inhibition [18] of less than 50%.
For `CCOC(=O)c1sc(NNC(=O)c2ccccc2C)nc1C`, the Ki [2] was “Not_active” and the inhibition [18] was less than 50%.
In the case of `CCOC(=O)c1sc(NNC(=O)c2ccccc2OC)nc1C`, the Ki [2] is reported as “Not_active”.
With `O=C(NNc1nc(-c2ccc(Br)cc2)cs1)c1ccc(F)cc1` the Ki ([2]; read-out: Ki) was 0.15 µM, the Activity [7] was “Active” and the Activity [8] was “Active”. For the same compound, the Tm [9] was 51.1 °C, the Tm [10] was 45.9 °C and the inhibition [11] was “inactive”. It also gave an IC50 at 48 h [12] of 10.5 µM and a viability at 48 h, 100 µM [13] of 91.8%.
In the case of `CCOC(=O)c1sc(NNC(=O)c2ccco2)nc1C`, the Ki [2] is reported as “Not_active” and the inhibition [18] is reported as less than 50%.
Compound `Cc1nc(NC(=O)C(C)(C)C)sc1-c1cnc(N(CC(C)(C)O)C2CCCCC2)s1` has an IC50 (SARS-CoV-2 [19]) of 1.57 µM.
With `O=C(NNc1nc(-c2ccc(Cl)cc2)cs1)c1ccc(Br)cc1` the Ki [2] was “Not_active” and the inhibition [18] was less than 50%.
With `CCOC(=O)c1sc(NNC(=O)c2cccc(Cl)c2)nc1C` the Ki [2] was “Not_active” and the inhibition [18] was less than 50%.
For `O=c1c2ccccc2[se]n1-c1ccccc1` [EBSELEN], the Activity [20] was “Active”, the Activity [21] was “inactive” and the Tm [9] was 52.4 °C. For the same compound, the Tm [10] was 45.4 °C and the inhibition [11] was “inactive”.
Compound `Cc1ccc(-c2csc(NNC(=O)c3ccc([N+](=O)[O-])cc3)n2)cc1` has an EC50 (SARS-CoV-2 [1]) of 0.126 µM, a Ki ([2]; read-out: Ki) of 1.25 µM and a Tm [9] of 52.6 °C. The Tm [10] was 41.4 °C, the inhibition [11] was “inactive” and the IC50 at 48 h [12] was 6.69 µM. It also gave a viability at 48 h, 100 µM [13] of 82.3% and an Activity (SARS-CoV-2 [14]) greater than 80%.
With `CCOC(=O)c1sc(NNC(=O)c2cccc(Br)c2)nc1C` the Ki [2] was “Not_active” and the inhibition [18] was less than 50%.
For `CCOC(=O)c1sc(NNC(=O)c2ccc(Cl)cc2)nc1C`, the EC50 (SARS-CoV-2 [1]) was 0.072 µM, the Ki [2] was “Not_active” and the Activity [8] was “Active”. For the same compound, the Tm [9] was 52.1 °C, the Tm [10] was 44.7 °C and the inhibition [11] was “inactive”. The IC50 at 48 h [12] was 45.5 µM, the viability at 48 h, 100 µM [13] was 92.5% and the Activity (SARS-CoV-2 [14]) was greater than 80%. For the same compound, the Activity (SARS-CoV-2 [22]) was greater than 70%.
With `CCOC(=O)c1sc(N/N=C/c2cc3ccccc3nc2Cl)nc1C` the Ki [2] was “Not_active”.
